Test results published in PMC9323797, “4-Substituted Thieno[3,2-d]pyrimidines as Dual-Stage Antiplasmodial Derivatives” (Pharmaceuticals, 2022).
Read-outs that look alike come from different tables or passages of the source.

How the values were obtained:
[1] = Cytotoxic evaluation on HepG2 cell line (MTT, 72 h); assay type: cell-based, human; details: HepG2 cells (hepatocarcinoma cell line, ATCC HB-8065); human hepatoma cell line HepG2, MTT, 72 h, mean ± SD of three independent experiments
Protocol: (§1) The HepG2 cell line (hepatocarcinoma cell line purchased from ATCC, ref HB-8065) was maintained at 37 °C, 5% CO2, with 90% humidity in MEM supplemented with 10% fetal bovine serum, 1% L-glutamine (200 mM), penicillin (100 U/mL), and streptomycin (100 μg/mL) (complete MEM medium). The evaluation of the cytotoxicity of the tested molecules was performed according to the method of Mosmann, with slight modifications. Briefly, 5.103 cells in 100 μL of the complete medium were inoculated into each well of a 96-well plate and incubated at 37 °C in a humidified 5% CO2. After 24 h incubation, 100 μL of medium with various product concentrations dissolved in DMSO (final concentration less than 0.5% v/v) was added and the plates were incubated for 72 h at 37 °C. Triplicate assays were performed for each sample. Each plate well was then microscope-examined for detecting possible precipitate formation before the medium was aspirated from the wells. A total of 100 μL of MTT (3-(4,5-dimethyl-2-thiazolyl)-2,5-diphenyl-2H-tetrazolium bromide) solution (0.5 mg/mL in medium without FCS) was then added to each well. Cells were incubated for 2 h at 37 °C. After this time, the MTT solution was removed and DMSO (100 μL) was added to dissolve the resulting blue formazan crystals. Plates were shaken vigorously (700 rpm) for 10 min. The absorbance was measured at 570 nm, with 630 nm as a reference wavelength using a TECAN Infinite F-200 Microplate Reader. DMSO was used as a blank and doxorubicin (purchased from Sigma Aldrich, St. Louis, MO, USA) was used as a positive control. Cell viability was calculated as a percentage of control (cells incubated without compound). The 50% cytotoxic concentration (CC50) was determined from the dose–response curve by using the TableCurve software 2D v.5.0. CC50 values represent the mean value calculated from three independent experiments.

P. falciparum K1 [2] = test: Blood-stage antiplasmodial evaluation (SYBR Green I fluorescence, 72 h); assay type: cell-based, Plasmodium falciparum; details: for EC50: read-out: P. falciparum K1 EC50
Protocol: A K1 culture-adapted P. falciparum strain resistant to chloroquine, pyrimethamine, and proguanil was used in an in vitro culture. It was maintained in a continuous culture, as described previously by Trager and Jensen. Cultures were maintained in fresh A+ human erythrocytes at 2.5% hematocrit in a complete medium (RPMI 1640 with 25 mM HEPES, 25 mM NaHCO3, and 10% of A+ human serum) at 37 °C under a reduced O2 atmosphere (gas mixture: 10% O2, 5% CO2, and 85% N2). Parasitemia was maintained daily between 1 and 3%. The P. falciparum drug susceptibility test was carried out by comparing quantities of DNA in treated and control cultures of parasite in human erythrocytes, according to a SYBR Green I fluorescence-based method using a 96-well fluorescence plate reader. Compounds, previously dissolved in DMSO (final concentration less than 0.5% v/v), were incubated in a total assay volume of 200 μL (RPMI, 2% hematocrit and 0.4% parasitemia) for 72 h in a humidified atmosphere (10% O2 and 5% CO2) at 37 °C, in 96-well flat bottom plates. Duplicate assays were performed for each sample. After incubation, plates were frozen at […] for 24 h. Then, the frozen plates were thawed for 1 h at 37 °C. A total of 15 μL of each sample was transferred to 96-well flat-bottom non-sterile black plates (Greiner Bio-One, Kremsmünster, Austria) already containing 15 μL of the SYBR Green I lysis buffer (2X SYBR Green I, 20 mM Tris base pH 7.5, 20 mM EDTA, 0.008% w/v saponin, 0.08% w/v Triton X-100). Negative control treated by solvents (DMSO or H2O) and positive controls (chloroquine) were added to each set of experiments. Plates were incubated for 15 min at 37 °C and then read on a TECAN Infinite F-200 spectrophotometer with excitation and emission wavelengths at 485 and 535 nm, respectively. The concentrations of compounds required to induce a 50% decrease in parasite growth (EC50 K1) were calculated from three independent experiments.

P. berghei = test: Hepatic-stage antiplasmodial evaluation (PbGFP sporozoites in primary simian hepatocytes, high content imaging); assay type: cell-based; details: mean ± SD of three independent experiments
Source text: P. berghei sporozoites constitutively expressing green fluorescent protein (PbGFP, ANKA strain) were obtained by the dissection of salivary glands from infected Anopheles stephensi mosquitoes bred and infected in the insectary facilities of UMR-S 1135 (CIMI, Paris, France). Infected salivary glands were removed by hand dissection, crushed in a potter, and filtered through a 40 μm filter for sporozoite isolation (Cell Strainer, BD BioSciences, San Jose, CA, USA). The sporozoites were counted using a disposable plastic microscope slide (KOVA).
(§2) Primary simian hepatocytes were isolated from liver segments collected from healthy Macaca fascicularis from CEA, Fontenay aux Roses, France. All hepatocytes were obtained using collagenase perfusion, as previously described, and were immediately cryopreserved. One day before infection, the cryopreserved hepatocytes were thawed at 37 °C and were seeded into collagen-coated (5 µg/cm^2 rat tail collagen I, Invitrogen, Carlsbad, CA, USA) 96-well plate, at a density of 80,000 cells per well. They were cultured at 37 °C in 5% CO2 in William’s E medium (Gibco, Life Technologies, Saint Aubin, France) supplemented with 10% of Fetal Bovine Serum FCIII, 5 × 10^–5 M hydrocortisone hemisuccinate (Serb Laboratories, Paris, France), 5 μg per ml bovine insulin (Sigma Aldrich, St. Louis, MO, USA), 2 mM L-glutamine, and 0.02 U per ml-0.02 μg per ml penicillin-streptomycin (Life Technologies) until infection with sporozoites.
(§3) Sporozoites of P. berghei were re-suspended in the above complete medium used for the hepatocytes culture. Simian hepatocytes were inoculated in 50 μL of complete media with 20,000 P. berghei-sporozoites/well in 96-well plates. The infected culture plates were centrifuged for 10 min at 900× g to allow fast parasite sedimentation onto the target cells and were further incubated with the serial dilution of drugs that were prepared in advance. After 3 h of incubation, cultures were washed and further incubated in a fresh medium containing the appropriate drug concentration, which were changed every 24 h during the study period. Cultured hepatocytes were fixed using 4% paraformaldehyde (PFA) for 15 min at room temperature. Host cell and parasite nuclei were labelled with 4′,6-diamidino-2-phenylindole (DAPI). Upon fixation and immunostaining, cell culture plates were analyzed in order to determine the number and size of the parasites using a Cell Insight High Content Screening platform equipped with the Studio HCS software (Thermo Fisher Scientific, Waltham, MA, USA). The parasite size reduction was calculated on the average object area using the total surface area of each selected object (μm^2). To assess the cell toxicity of drugs for hepatic cultures, fixed plates were further scanned for the DAPI signal representing host nuclei. The analysis was based on counting of total cell nuclei. GraphPad Prism 7 statistical software (GraphPad. Software, San Diego, CA, USA) was used for data analysis and graphing. All values were expressed as means and standard deviations (SD).

[3] = Cytotoxicity on primary simian hepatocytes (DAPI count of host cell nuclei); assay type: cell-based, Macaca fascicularis; details: Macaca fascicularis, count of total cell nuclei, mean ± SD of three independent experiments
Protocol: as §2, §3

HepG2 [4] = test: Cytotoxic evaluation on HepG2 cell line (MTT, 72 h); assay type: cell-based, human; details: toxicity on HepG2 versus EC50 against the erythrocytic stage of P. falciparum
Protocol: as §1

P. falciparum K1 [5] = system: P. falciparum K1; parameters: method as in PMID 25791675; details: asexual blood stages, K1 strain; cited from earlier work
HepG2 [6] = system: HepG2; parameters: method as in PMID 25791675; details: cited from earlier work
[7] = system: Primary Simian Hepatocytes; test: Cytotoxicity on primary simian hepatocytes (DAPI count of host cell nuclei); assay type: cell-based, Macaca fascicularis; details: count of total cell nuclei, mean ± SD of three independent experiments
Protocol: as §2, §3

[8] = Plasmodium falciparum, K1, 72 h, asexual blood stages, drug-resistant K1 strain, 72 h incubation, mean ± SD of three independent experiments
[9] = asexual blood stages, drug-resistant K1 strain, 72 h incubation, mean ± SD of three independent experiments
[10] = Plasmodium falciparum, K1, 72 h

SMILES | CC50 at 72 h [1] [µM] | EC50 (P. falciparum K1 [2]; [8]) [µM] | P. falciparum K1 EC50 (P. falciparum K1 [2]; [9]) | EC50 (P. berghei; Plasmodium berghei, Hepatocyte) [µM] | EC50 (P. berghei) [µM] | CC50 [3] [µM] | other results
Cc1ccc(-c2cc3nc(NC(C)(C)C)nc(NCCCCO)c3s2)cc1 [Compound 10f, 4-((2-(tert-butylamino)-6-(p-tolyl)thieno[3,2-d]pyrimidin-4-yl)amino)butan-1-ol] | 2.9 ± 1.1 | 0.7 ± 0.1 | micromolar range | ~15 | 14.1 ± 1.9 | 17.7 ± 1.9 | –
Cc1ccc(-c2cc3nc(NC(C)(C)C)nc(I)c3s2)cc1 [Compound 6, N-(Tert-butyl)-4-iodo-6-(p-tolyl)thieno[3,2-d]pyrimidin-2-amine] | 29 ± 5.5 | – | submicromolar range | 26.7 ± 5.6 | – | > 100 | –
Cc1ccc(-c2cc3nc(NC(C)(C)C)nc(Cl)c3s2)cc1 [Compound 5, N-(Tert-butyl)-4-chloro-6-(p-tolyl)thieno[3,2-d]pyrimidin-2-amine] | 16.4 ± 5.4 | – | submicromolar range | ~15 | 16.5 ± 8 | > 100 | selective index (HepG2 [4]): 54.7
Cc1ccc(-c2cc3nc(NC(C)(C)C)[nH]c(=O)c3s2)cc1 [Compound 1, Gamhepathiopine, reference compound] | – | – | – | 24.3 ± 1.6 | – | > 200 | EC50 (P. falciparum K1 [5]): 0.2 ± 0.02 µM; CC50 (HepG2 [6]): 25.6 ± 3.1 µM
COCCNc1nc(NC(C)(C)C)nc2cc(-c3ccc(C)cc3)sc12 [Compound 10g, N^2-(tert-butyl)-N^4-(2-methoxyethyl)-6-(p-tolyl)thieno[3,2-d]pyrimidine-2,4-diamine] | 3.7 ± 0.9 | 0.8 ± 0.2 | micromolar range | ~5 | 6.3 ± 0.2 | 7.8 ± 2.3 | Primary Simian Hepatocytes CC50 [7]: cytotoxic
CNc1nc(NC(C)(C)C)nc2cc(-c3ccc(C)cc3)sc12 [Compound 10c, N^2-(tert-butyl)-N^4-methyl-6-(p-tolyl)thieno[3,2-d]pyrimidine-2,4-diamine] | 3.7 ± 0.6 | 1 ± 0.4 | micromolar range | ~5 | 4.6 ± 5.7 | 31.5 ± 6.8 | P. berghei EC50 (P. berghei): most active
CCCNc1nc(NC(C)(C)C)nc2cc(-c3ccc(C)cc3)sc12 [Compound 10d, N^2-(tert-butyl)-N^4-propyl-6-(p-tolyl)thieno[3,2-d]pyrimidine-2,4-diamine] | 3.7 ± 0.3 | 1.1 ± 0.2 | micromolar range | ~5 | 7.1 ± 1.4 | 22 ± 2.8 | –
Cc1ccc(-c2cc3nc(NC(C)(C)C)nc(N)c3s2)cc1 [Compound 10a, N^2-(Tert-butyl)-6-(p-tolyl)thieno[3,2-d]pyrimidine-2,4-diamine] | 12.1 ± 4.1 | < 2 | micromolar range | 70.7 ± 9.7 | – | > 50 | EC50 (P. falciparum K1 [2]; [9]): 1.4 ± 0.6 µM; P. berghei EC50 (P. berghei): not active
C[C@H]1c2cccc(O)c2C(=O)C2=C(O)[C@]3(O)C(=O)C(C(N)=O)=C(O)[C@@H](N(C)C)[C@@H]3[C@@H](O)[C@@H]21 [Doxycycline] | – | – | – | – | – | – | EC50 (P. falciparum K1 [5]): 5 µM
Cc1ccc(-c2cc3nc(NC(C)(C)C)nc(-c4ccncc4)c3s2)cc1 [Compound 11e, N-(tert-butyl)-4-(pyridin-4-yl)-6-(p-tolyl)thieno[3,2-d]pyrimidin-2-amine] | – | 28.1 ± 7 | – | – | – | – | –
CCN(CC)CCCC(C)Nc1ccnc2cc(Cl)ccc12 (stereo not drawn) [Chloroquine, reference compound] | – | – | – | – | – | – | EC50 (P. falciparum K1 [2]; [10]): 0.8 ± 0.1 µM
Cc1ccc(-c2cc3nc(NC(C)(C)C)nc(N[C@@H](C)C(=O)[O-])c3s2)cc1.O.O.O.[Na+] [Compound 10j, Sodium (S)-2-((2-(Tert-butylamino)-6-(p-tolyl)thieno[3,2-d]pyrimidin-4-yl)amino)-propanoate trihydrate] | – | – | loss of activity | – | – | – | EC50 (P. falciparum K1 [2]; [10]): > 12.5 µM
Cc1ccc(-c2cc3nc(NC(C)(C)C)nc(Nc4ccccc4)c3s2)cc1 [Compound 10h, N^2-(tert-butyl)-N^4-phenyl-6-(p-tolyl)thieno[3,2-d]pyrimidine-2,4-diamine] | – | 2 ± 0.4 | some activity was maintained | – | – | – | –
